Patent publication US20060052627A1, “Novel modulators of the PPAR-type receptors and cosmetic/pharmaceutical compositions comprised thereof” (GALDERMA RESEARCH & DEVELOPMENT, S.N.C., priority 2003, published 2006)

Tests used:
Format in all cases: cell-based
PPARα = molecular target: T1, PPARα (Homo sapiens, UniProt Q07869); experiment: Cross-curve PPAR transactivation test (luciferase reporter, HeLN cells), PPARα; conditions: HeLN cells stably transfected with Gal-hPPARα; apparent Kd by Schild regression against reference agonist; n.a. means not active; read-out: PPAR alpha Kd app
T1 sequence (Q07869 200-468 limits assumed): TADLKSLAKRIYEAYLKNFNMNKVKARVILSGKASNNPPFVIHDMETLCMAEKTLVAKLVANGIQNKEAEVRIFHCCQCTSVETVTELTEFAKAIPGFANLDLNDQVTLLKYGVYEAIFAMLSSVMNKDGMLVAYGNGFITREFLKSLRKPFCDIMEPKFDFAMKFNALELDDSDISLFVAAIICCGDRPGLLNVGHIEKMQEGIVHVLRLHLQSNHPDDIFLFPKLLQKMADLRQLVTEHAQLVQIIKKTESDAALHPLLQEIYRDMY
Experimental: (§1) This activity on the PPARα, δ and γ receptors is measured in a transactivation test and quantified by the dissociation constant Kdapp (apparent), as described in Example 142.
(§2) The activation of receptors with an agonist (activator) in HeLN cells leads to the expression of a reporter gene, luciferase, which, in the presence of a substrate, generates light. The modulation of the receptors is measured as quantity of luminescence produced after incubating the cells in the presence of a reference agonist. The ligands will displace the agonist from its site. The measurement of the activity is performed by quantification of the light produced. This measurement makes it possible to determine the modulatory activity of the compounds according to the invention by determining the constant which is the affinity of the molecule for the receptor. […]
(§3) The various dilutions of the test products and of the reference ligand are added in an amount of 5 [I per well. […] After 5 minutes, the plates are read by the luminescence reader.
(§4) These AC50 values are used to calculate the Schild regression by plotting a straight line corresponding to the Schild equation (“quantitation in receptor pharmacology” Terry P. Kenakin, Receptors and Channels, 2001, 7, 371-385) which leads to Kd app values being obtained (in nM).

PPARδ = PPARδ (Homo sapiens, UniProt Q03181); experiment: Cross-curve PPAR transactivation test (luciferase reporter, HeLN cells), PPARδ; conditions: HeLN cells stably transfected with Gal-hPPARδ; apparent Kd by Schild regression against reference agonist; n.a. means not active; read-out: PPAR delta Kd app
Experimental: as §1, §2, §3, §4

PPARγ = molecular target: T2, PPARγ (Homo sapiens, UniProt P37231); experiment: Cross-curve PPAR transactivation test (luciferase reporter, HeLN cells), PPARγ; conditions: HeLN cells stably transfected with Gal-hPPARγ; apparent Kd by Schild regression against reference agonist; n.a. means not active; read-out: PPAR gamma Kd app
T2 sequence (P37231 238-505 limits assumed): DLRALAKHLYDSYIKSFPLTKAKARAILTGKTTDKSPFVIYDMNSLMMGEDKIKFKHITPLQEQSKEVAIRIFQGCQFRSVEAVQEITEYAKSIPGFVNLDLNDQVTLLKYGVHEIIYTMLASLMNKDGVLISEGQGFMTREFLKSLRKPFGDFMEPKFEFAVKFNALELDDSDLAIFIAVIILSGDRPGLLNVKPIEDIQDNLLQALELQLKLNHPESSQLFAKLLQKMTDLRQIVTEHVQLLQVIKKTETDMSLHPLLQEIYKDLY
Experimental: as §1, §2, §3, §4

Chain of PPARδ (Q03181 211-441 limits assumed): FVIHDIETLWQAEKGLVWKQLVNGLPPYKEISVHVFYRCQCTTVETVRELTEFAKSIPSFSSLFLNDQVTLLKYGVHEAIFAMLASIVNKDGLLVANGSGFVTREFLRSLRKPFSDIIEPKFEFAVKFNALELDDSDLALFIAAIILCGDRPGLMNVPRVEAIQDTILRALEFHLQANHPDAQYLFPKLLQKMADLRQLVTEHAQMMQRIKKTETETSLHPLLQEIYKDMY

O=C(O)Cc1ccc(Sc2ccc(N(CCc3ccccc3)C(=O)NC3CCCCC3)cc2)cc1 [Example 116b, {4-[4-(3-Cyclohexyl-1-phenethylureido)phenylsulfanyl]phenyl}acetic acid]
Kd (PPARα): 250 nM | Kd (PPARδ): 120 nM | Kd (PPARγ): 500 nM

CCCCCCNC(=O)N(CCCc1ccccc1)c1cccc(Sc2ccc(CC(=O)O)cc2)c1 [Example 30b, (4-{3-[3-Hexyl-1-(3-phenylpropyl)ureido]phenylsulfanyl}phenyl)acetic acid]
Kd (PPARα): 8000 nM | Kd (PPARδ): 120 nM | Kd (PPARγ): 2000 nM
